According to US20040048195A1, “Heat-sensitive lithographic printing plate precursor” (AGFA-GEVAERT, priority 2002, published 2004):
Read-outs that look alike come from different tables or passages of the source.

Assays:
Type in all cases: physicochemical
[1] = Test of inhibiting capability of the dyes: dissolution time of unexposed novolac/dye coating in Agfa EP26 developer; details: dye 35 mg/m^2 in 0.9 g/m^2 novolac, Agfa EP26 developer at 20° C., reference without dye 30 sec
Description: A layer of novolac (Alnovol SPN452 from Clariant, a 40.5 wt. % solution in methoxypropanol) and the dyes specified in Table 2 were coated on the above support. After drying during 1 min at 130° C., the samples contained 0.9 g/m^2 of novolac. A series of unexposed samples is immersed in Agfa EP26 developer at 20° C., each sample during a different time period. After the immersion period, the sample was removed from the developer, immediately rinsed with water, dried and then the dissolution of the coating in the developer was measured by comparing the weight of the sample before and after the development. As soon as the coating is dissolved completely, no more weight loss is measured upon longer immersion time periods, i.e. a curve representing weight loss as a function of immersion time reaches a plateau from the moment of complete dissolution of the layer, which is referred to herein as “dissolution time”. When the dissolution time of the sample containing the IR dye is longer than the dissolution time of the sample without the IR dye, then the IR dye clearly acts as an inhibitor.

[2] = Solubility of the IR-dyes (supersaturated solution, filtration, spectrophotometric determination); details: for solubility: thermodynamic from solid
Description: The solubility of the IR-dyes IR-1 to −5 and of a comparison dye Cl (commercially available from FEW Chemicals GmbH) was determined as follows:
the extinction coefficient of the dyes was measured in methanol with a HP8453 UV/VIS/NIR spectrophotometer;
a supersaturated solution of the dyes in a) 2-methoxyl-propanol (MOP) and b) water/NaOH (pH=9) was prepared; after filtration the concentration of dissolved dye was determined by dissolution with methanol using the previous determined extinction coefficient. [drawing 8]

[3] = as above; details: water/NaOH, pH 11.7, aqueous buffer, thermodynamic from solid, insoluble at pH = 9; NaOH was added until pH = 11.7; read-out: Solubility in H2O/NaOH

Structure (SMILES): CN1/C(=C/C=C2\CCCC(/C=C/C3=[N+](C)c4ccc5ccccc5c4C3(C)C)=C2Cl)C(C)(C)c2c1ccc1ccccc21 [Comparison, reference compound]
- Dissolution time [1]: 60 s
- solubility ([2]; 2-methoxyl-propanol (MOP), organic solvent or mixture, 2-methoxyl-propanol (MOP), read-out: Solubility in MOP): 50.1 mg/mL
- solubility [3]: < 0.002 mg/mL

Structure (SMILES): CC1(C)C(/C=C/C2=C(Sc3ccccc3C(=O)O)C(=C/C=C3/N(CCCCS(=O)(=O)[O-])c4ccccc4C3(C)C)/CCC2)=[N+](CCCCS(=O)(=O)[O-])c2ccccc21.[K+] [IR-dye 1]
- Dissolution time ([1]; listed as IR-1): 30 s
- Solubility in MOP ([2]; 2-methoxyl-propanol (MOP)): 3.8 mg/mL
- Solubility in H2O/NaOH at pH = 9 ([2]; water/NaOH, pH = 9): 40.1 g/l

Structure (SMILES): CC1(C)C(/C=C/C2=C(Sc3ccccc3C(=O)O)C(=C/C=C3/N(CCCCS(=O)(=O)[O-])c4ccccc4C3(C)C)/CCC2)=[N+](CCCCS(=O)(=O)[O-])c2ccccc21.[K+] [IR-dye 2]
- Dissolution time ([1]; listed as IR-2): 20 s
- Solubility in MOP ([2]; 2-methoxyl-propanol (MOP)): 0.42 mg/mL
- Solubility in H2O/NaOH at pH = 9 ([2]; water/NaOH, pH = 9): >50 g/l

Structure (SMILES): CC1(C)C(/C=C/C2=C(Sc3ccccc3C(=O)O)C(=C/C=C3/N(CCCCS(=O)(=O)[O-])c4ccccc4C3(C)C)/CCC2)=[N+](CCCCS(=O)(=O)[O-])c2ccccc21.[K+] [IR-dye 3]
- Dissolution time ([1]; listed as IR-3): 30 s
- Solubility in MOP ([2]; 2-methoxyl-propanol (MOP)): >100 mg/mL
- Solubility in H2O/NaOH at pH = 9 ([2]; water/NaOH, pH = 9): >50 g/l

Structure (SMILES): CC1(C)C(/C=C/C2=C(Sc3ccccc3C(=O)O)C(=C/C=C3/N(CCCCS(=O)(=O)[O-])c4ccccc4C3(C)C)/CCC2)=[N+](CCCCS(=O)(=O)[O-])c2ccccc21.[K+] [IR-dye 4]
- Dissolution time ([1]; listed as IR-4): 20 s
- Solubility in MOP ([2]; 2-methoxyl-propanol (MOP)): 5.7 mg/mL
- Solubility in H2O/NaOH at pH = 9 ([2]; water/NaOH, pH = 9): >50 g/l

Structure (SMILES): CC1(C)C(/C=C/C2=C(Sc3ccccc3C(=O)O)C(=C/C=C3/N(CCCCS(=O)(=O)[O-])c4ccccc4C3(C)C)/CCC2)=[N+](CCCCS(=O)(=O)[O-])c2ccccc21.[K+] [IR-dye 5]
- Dissolution time ([1]; listed as IR-5): 25 s
- solubility ([2]; 2-methoxyl-propanol (MOP) with tri-ethylamine, organic solvent or mixture, 2-methoxyl-propanol (MOP), tri-ethylamine was added to dissolve the dye, read-out: Solubility in MOP): 91.3 mg/mL
- solubility ([2]; water/NaOH, pH 9, aqueous buffer, water/NaOH, pH = 9, read-out: Solubility in H2O/NaOH at pH = 9): > 50 mg/mL
